Read-outs that look alike come from different tables or passages of the source. Blank lines part the entries; values can stand above or below the compound they belong to.
Legend:
[1] = Cytotoxicity assay (CCK-8); type: cell-based, Rhesus monkey; conditions: rhesus monkey
Method: (§1) To evaluate the cytotoxicity of different HSP90 inhibitors in vitro, 10,000 MA104 cells, 30,000 Caco-2 cells, and 80,000 HT-29 cells in 100 µL complete DMEM medium were seeded in 96-well plates and cultured at 37°C and 5% CO2 for 24 h to reach about 100% confluence, and a cell-free control was also set. After removing the initial medium, 100 µL of complete DMEM medium containing the indicated concentrations of drugs was added to each well, and the plates were incubated at 37°C and 5% CO2. Twenty-four hours later, the drug-containing medium was replaced with 100 µL fresh complete DMEM medium plus 10 µL 5 mM CCK-8 reagent (Beyotime, China), and OD450 absorbance of each well was detected 3 h later using a microplate reader (Gene Company Limited, China). Relative cell viability rate = OD450 (drug-treated cells − cell-free control) / OD450 (0 µM drug-treated cells − cell-free control).
(§2) The 50% cytotoxic concentration (CC50) values were determined by nonlinear regression (curve fit) analysis in GraphPad Prism 9.0 (GraphPad Software). Dose-response data (drug concentrations as X-axis and normalized cell viability percentages as Y-axis) were fitted to a Dose-response Inhibition model ("[Inhibitor] vs. normalized response-Variable slope"). The curve was constrained to a bottom limit of 0% viability. The CC50 value was automatically calculated as the X-intercept at Y=50%. Model adequacy was validated using goodness-of-fit metrics (R²≥0.95), 95% confidence intervals, and residual distribution analysis. Final CC50 values were derived from three independent biological replicates and reported as mean ± SEM.

MA104 cells = experiment: Cytotoxicity assay (CCK-8); type: cell-based, Rhesus monkey; conditions: 24 h
Method: as §1, §2

[2] = Cytotoxicity assay (CCK-8); type: cell-based, Human; conditions: human
Method: as §1, §2

Caco-2 cells = experiment: Cytotoxicity assay (CCK-8); type: cell-based, Human; conditions: 24 h
Method: as §1, §2

HT-29 cells = experiment: Cytotoxicity assay (CCK-8); type: cell-based, Human; conditions: 24 h
Method: as §1, §2

RV SA11 (G3P[2]) strain = experiment: In vitro assay of RV replication inhibition (PFA); type: cell-based, Rotavirus; conditions: Rotavirus
Method: (§3) For analysis of effects of different […] on RV replication in vitro, 10,000 MA104 cells, 30,000 Caco-2 cells, and 80,000 HT-29 cells in 100 µL complete DMEM medium were seeded in 96-well plates and cultured at 37°C and 5% CO2 for 24 h. Then the cells were infected with RV Wa or SA11 strains (MOI = 1 (PFU/cell)) for 1 h. After removing the viruses and washing cells two times with DMEM, 100 µL DMEM containing the indicated concentrations of drugs was added to each well, and the plates were incubated at 37°C and 5% CO2. At 24 h p.i., the infected cells and culture medium were collected, frozen/thawed twice, and subjected to centrifugation at 1,000 × g for 3 min at room temperature. Then, the supernatant was subjected to analysis of viral load by PFA. […] Dose-response data (drug concentrations as x-axis and normalized inhibition percentages as y-axis) were fitted to a dose-response inhibition model ([Inhibitor] vs normalized response – Variable slope). […] Model adequacy was validated using goodness-of-fit metrics (R^2 ≥ 0.95), 95% confidence intervals, and residual distribution analysis.
(§4) Wa/SA11 strains were titrated by PFA, which was carried out as described (3) with some modification. Briefly, confluent monolayers of MA104 cells in 24-well tissue culture plates were infected with 100 µL supernatants containing infectious RV particles which were serially diluted (10^1, 10^2, 10^3, and 10^4) with DMEM containing 1 µg/mL trypsin and penicillin (10,000 U/mL)-streptomycin (5 µg/mL) (DMEM-T) for 1 h at 37°C. Then 400 µL agarose overlay (0.8% agarose in 1×DMEM-T) was added and the plates were incubated at 37℃ and 5% CO2 for 5 days. The cells in each well were fixed by 1 mL 4% paraformaldehyde (Sangon Biotech, China) overnight (> 12 h) at room temperature. Then, the paraformaldehyde and agarose were removed and the monolayers were stained with 0.5 ml of a 1% (v/v) crystal violet (Sangon Biotech, China) diluted in distilled water for 10 min at room temperature. Then, the plates were drained and dried, and the plaques were enumerated. As the EDIM strain is not able to grow in cell culture, it was titrated by qPCR analysis as described (4) with EDIM VP6 gene as the target.

RV Wa (G1P[8]) strain = experiment: In vitro assay of RV replication inhibition (PFA); type: cell-based, Rotavirus; conditions: Rotavirus
Method: as §3, §4

[3] = Caco-2, 24 h, read-out: IC50 (Fig 1B plot)
[4] = HT-29, 24 h, read-out: IC50 (Fig 1B plot)
[5] = MA104, 24 h, read-out: IC50 (Fig 1B plot)

IC50 (RV SA11 (G3P[2]) strain; SA11 strain in Caco-2 cells, MOI = 1, 24 h p.i., PFA, read-out: IC50): 83.8 ± 20.6 nM | IC50 (RV SA11 (G3P[2]) strain; SA11 strain in Caco-2 cells, representative experiment, 24 h, PFA, read-out: IC50 (Fig 1B plot)): 83.7 nM | IC50 (RV SA11 (G3P[2]) strain; SA11 strain in HT-29 cells, MOI = 1, 24 h p.i., PFA, read-out: IC50): 48.2 ± 34.8 nM | IC50 (RV SA11 (G3P[2]) strain; SA11 strain in HT-29 cells, representative experiment, 24 h, PFA, read-out: IC50 (Fig 1B plot)): 41.6 nM | IC50 (RV SA11 (G3P[2]) strain; SA11 strain in MA104 cells, MOI = 1, 24 h p.i., PFA, read-out: IC50): 3.01 ± 0.77 nM | IC50 (RV SA11 (G3P[2]) strain; SA11 strain in MA104 cells, representative experiment, 24 h, PFA, read-out: IC50 (Fig 1B plot)): 2.94 nM | IC50 (RV Wa (G1P[8]) strain; Wa strain in Caco-2 cells, MOI = 1, 24 h p.i., PFA, read-out: IC50): 91.7 ± 6.95 nM | IC50 (RV Wa (G1P[8]) strain; Wa strain in Caco-2 cells, representative experiment, 24 h, PFA, read-out: IC50 (Fig 1B plot)): 92 nM | IC50 (RV Wa (G1P[8]) strain; Wa strain in HT-29 cells, MOI = 1, 24 h p.i., PFA, read-out: IC50): 16.5 ± 4.41 nM | IC50 (RV Wa (G1P[8]) strain; Wa strain in HT-29 cells, representative experiment, 24 h, PFA, read-out: IC50 (Fig 1B plot)): 16.1 nM | IC50 (RV Wa (G1P[8]) strain; Wa strain in MA104 cells, MOI = 1, 24 h p.i., PFA, read-out: IC50): 10.5 ± 3.57 nM | IC50 (RV Wa (G1P[8]) strain; Wa strain in MA104 cells, representative experiment, 24 h, PFA, read-out: IC50 (Fig 1B plot)): 10.1 nM
SMILES: COC1=C2C[C@@H](C)C[C@H](OC)[C@H](O)[C@@H](C)/C=C(\C)[C@H](OC(N)=O)[C@@H](OC)/C=C\C=C(/C)C(=O)NC(=CC1=O)C2=O [GA, geldanamycin]
CC50 at 24 h ([1]; CC50): < 40 µM | CC50 (MA104 cells; rhesus monkey): 26.6 ± 5.55 µM | CC50 at 24 h ([2]; CC50): < 40 µM | CC50 (Caco-2 cells; human): 20 ± 3.07 µM | CC50 (HT-29 cells; human): 29.2 ± 5.06 µM

SMILES: C=CCNC1=C2C[C@@H](C)C[C@H](OC)[C@H](O)[C@@H](C)/C=C(\C)[C@H](OC(N)=O)[C@@H](OC)/C=C\C=C(/C)C(=O)NC(=CC1=O)C2=O [17-AAG, 17-allylamino-17-demethoxygeldanamycin]
CC50 at 24 h ([1]; MA104 cells, 24 h, CCK-8, read-out: CC50): < 40 µM | CC50 (MA104 cells; MA104 cells, CCK-8, read-out: CC50): 23.3 ± 6.72 µM | CC50 at 24 h ([2]; Caco-2 cells, CCK-8): < 40 µM | CC50 at 24 h ([2]; HT-29 cells, 24 h, CCK-8, read-out: CC50): < 40 µM | CC50 (Caco-2 cells; Caco-2 cells, CCK-8, read-out: CC50): 28.6 ± 9.73 µM | CC50 (HT-29 cells; HT-29 cells, CCK-8, read-out: CC50): 20.7 ± 6.03 µM | IC50 (RV SA11 (G3P[2]) strain; Caco-2, 24 h): 116 ± 33.3 nM | IC50 (RV SA11 (G3P[2]) strain; [3]): 113 nM | IC50 (RV SA11 (G3P[2]) strain; HT-29, 24 h): 54 ± 7.14 nM | IC50 (RV SA11 (G3P[2]) strain; [4]): 53.9 nM | IC50 (RV SA11 (G3P[2]) strain; MA104, 24 h): 3.52 ± 0.6 nM | IC50 (RV SA11 (G3P[2]) strain; [5]): 3.51 nM | IC50 (RV Wa (G1P[8]) strain; Caco-2, 24 h): 162 ± 34.2 nM | IC50 (RV Wa (G1P[8]) strain; [3]): 172 nM | IC50 (RV Wa (G1P[8]) strain; HT-29, 24 h): 26.4 ± 20.5 nM | IC50 (RV Wa (G1P[8]) strain; [4]): 21.9 nM | IC50 (RV Wa (G1P[8]) strain; MA104, 24 h): 6.81 ± 2.18 nM | IC50 (RV Wa (G1P[8]) strain; [5]): 6.58 nM

From article PMC12817916, “A small-molecule HSP90 inhibitor, NVP-HSP990, alleviates rotavirus infection” (Journal of Virology, 2025)
